# Tests used:
# Assay in all cases: relative viability (nuclei count vs DMSO), 5 days (fraction); higher = more cells survive
# [1] = compound: Nc1ccccc1NC(=O)c1ccc(CNC(=O)OCc2cccnc2)cc1 [Entinostat] + Cc1cc(Nc2cc(N3CCN(C)CC3)nc(Sc3ccc(NC(=O)C4CC4)cc3)n2)n[nH]1 [Tozasertib] (partner 0.1 µM)
# Method in brief: (§1)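 Values are medians from duplicate plates. Each reflects relative viability, defined as the nuclei count of treated wells over that of vehicle wells. Lung cancer cell lines in 1536-well plates were pin-tool dosed one day after seeding with one drug alone or with a fixed anchor-drug dose plus five library-drug doses (not always all listed) in √10 steps, then fixed, stained and imaged at 4× after 5 days.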
# [2] = compound: C1COCCN1C2=NC(=NC3=C2OC4=C3C=CC=N4)C5=CC(=CC=C5)NC(=O)C6=CN=C(C=C6)N + COc1cccc2cc(-c3nc([C@H]4CC[C@H](C(=O)O)CC4)n4ncnc(N)c34)[nH]c12 [OSI-027] (partner 0.5 µM)
# Method in brief: as §1
# [3] = compound: Nc1ccccc1NC(=O)c1ccc(CNC(=O)OCc2cccnc2)cc1 [Entinostat] + C[C@]1(O)C[C@@H](c2nc(-c3ccc4ccc(-c5ccccc5)nc4c3)c3c(N)nccn32)C1 [Linsitinib] (partner 1 µM)
# Method in brief: as §1
# [4] = compound: C1COCCN1C2=NC(=NC3=C2OC4=C3C=CC=N4)C5=CC(=CC=C5)NC(=O)C6=CN=C(C=C6)N + CC(=O)Nc1cccc(-n2c(=O)n(C3CC3)c(=O)c3c(Nc4ccc(I)cc4F)n(C)c(=O)c(C)c32)c1 [Trametinib] (partner 0.02 µM)
# Method in brief: as §1
Cell Line,relative viability ([1]; first compound 0.02 µM),relative viability ([1]; first compound 0.06325 µM),relative viability ([1]; first compound 0.2 µM),relative viability ([1]; first compound 0.6325 µM),relative viability ([1]; first compound 2 µM),relative viability ([2]; first compound 0.02 µM),relative viability ([2]; first compound 0.06325 µM),relative viability ([2]; first compound 0.2 µM),relative viability ([2]; first compound 0.6325 µM),relative viability ([2]; first compound 2 µM),relative viability ([3]; first compound 0.02 µM),relative viability ([3]; first compound 0.06325 µM),relative viability ([3]; first compound 0.2 µM),relative viability ([3]; first compound 0.6325 µM),relative viability ([3]; first compound 2 µM),relative viability ([4]; first compound 0.02 µM),relative viability ([4]; first compound 0.06325 µM),relative viability ([4]; first compound 0.2 µM),relative viability ([4]; first compound 0.6325 µM),relative viability ([4]; first compound 2 µM)
NCI-H2405,0.736,0.78,0.607,0.524,0.319,0.578,0.668,0.618,0.599,0.585,0.977,1.11,1.04,0.896,0.789,0.478,0.722,0.672,0.553,0.418
NCI-H3122,0.334,0.36,0.479,0.275,0.102,0.998,1.01,0.835,0.977,0.347,1.02,1.03,1.07,1.08,0.868,0.275,0.249,0.233,0.229,0.175
PC-3 [JPC-3],0.898,0.786,0.685,0.59,0.326,0.849,0.839,0.697,0.704,0.54,0.956,0.907,0.728,0.716,0.467,0.65,0.696,,0.843,0.659
PC-14,0.56,0.629,0.325,0.104,0.0609,0.976,1.2,0.977,0.554,0.233,1.03,0.947,1.03,0.364,0.16,0.758,0.932,0.682,0.633,0.229
RERF-LC-KJ,0.417,0.4,0.349,0.215,0.198,0.558,0.594,0.558,0.458,0.462,0.912,0.766,0.885,0.536,0.239,0.808,0.971,0.91,0.893,0.689
SK-LU-1,0.335,0.337,0.278,0.182,0.169,0.38,0.36,0.348,0.329,0.266,1.1,1.04,0.909,0.657,0.516,0.486,0.502,0.5,0.42,0.411
SK-MES-1,0.849,0.826,0.925,0.673,0.324,0.572,0.664,0.589,0.426,0.337,1.11,1.05,1.23,0.983,0.69,0.474,0.518,0.458,0.426,0.395
SW 1573,0.237,0.186,0.242,0.179,0.164,0.592,0.776,0.75,0.477,0.371,0.721,0.93,0.811,0.884,0.609,0.744,0.573,0.476,0.534,0.476
